In one experiment the test system is Staphylococcus aureus. Briefly: Antimicrobial activity against Staphylococcus aureus ATCC 6538 by microdilution method. The class given is functional. A general note: Broth dilution looks for growth in wells or tubes with falling amounts of substance.
Another experiment concerns Bacillus cereus. Briefly: Antimicrobial activity against Bacillus cereus isolates by microdilution method. The class given is functional.
In the next experiment the test system is Micrococcus luteus. The experiment in a line: Antimicrobial activity against Micrococcus flavus ATCC 10240 by microdilution method. Format: functional.
The subject of the next experiment is Proteus mirabilis. Briefly: Antimicrobial activity against Proteus mirabilis isolates by microdilution method. The class given is functional, organism-based.
Another experiment has as its system Pseudomonas aeruginosa. The experiment in a line: Antimicrobial activity against Pseudomonas aeruginosa ATCC 27853 by microdilution method. The class given is functional, organism-based.
A further experiment deals with Escherichia coli. The experiment in a line: Antimicrobial activity against Escherichia coli ATCC 35218 by microdilution method. The class given is functional, organism-based.
For experiment [1], the system named is SF-268. The experiment in a line: Cytotoxicity against human SF268 cells at <40 uM after 48 hrs by SRB assay. Format: functional, cell-based.
Experiment [2] has as its system MCF7. Briefly: Cytotoxicity against human MCF7 cells at <40 uM after 48 hrs by SRB assay. Format: functional, cell-based. (Sulforhodamine B stains cellular protein and so reports cell mass.)
In experiment [3] the test system is SF-268. Briefly: Cytotoxicity against human SF268 cells after 48 hrs by SRB assay. Conditions: SF-268, 48 h. Format: functional.
Experiment [4] deals with DLD-1. Briefly: Cytotoxicity against human DLD1 cells after 48 hrs by SRB assay. Conditions: DLD-1, 48 h. The class given is functional.
Experiment [5] deals with OVCAR-3. The experiment in a line: Cytotoxicity against human OVCAR-3 cells after 48 hrs by SRB assay. Format: functional. The settings on record: OVCAR-3, 48 h.
The test system of experiment [6] is MCF7. Briefly: Cytotoxicity against human MCF7 cells after 48 hrs by SRB assay. The class given is functional. The settings on record: MCF7, 48 h.
For experiment [7], the system named is NCI-H460. The experiment in a line: Cytotoxicity against human H460 cells after 48 hrs by SRB assay. The class given is functional. Conditions: NCI-H460, 48 h.
The subject of experiment [8] is NCI-H460. The experiment in a line: Cytotoxicity against human H460 cells at <40 uM after 48 hrs by SRB assay. Format: functional, cell-based.
Experiment [9] relates to DLD-1. Briefly: Cytotoxicity against human DLD1 cells at <40 uM after 48 hrs by SRB assay. Format: functional, cell-based.
The test system of experiment [10] is OVCAR-3. Briefly: Cytotoxicity against human OVCAR-3 cells at <40 uM after 48 hrs by SRB assay. Format: functional, cell-based.
Setting [11] is: read-out: LC50 (the source's name).

In brackets after ≈: the same amount, converted by molar mass. Activity calls are given as the source filed them. The calls are words filed in the database; no cut-off is given here. Where only a bound is given, the exact number is not on record here.

Data on 12 compounds can be found in ChEMBL document CHEMBL1158815, “Sesquiterpene lactones from Centaurea spinosa and their antibacterial and cytotoxic activities” (2005).

Consider `CN[C@@H]1[C@H](O[C@H]2[C@H](O[C@H]3[C@H](O)[C@@H](O)[C@H](N=C(N)N)[C@@H](O)[C@@H]3N=C(N)N)O[C@@H](C)[C@]2(O)C=O)O[C@@H](CO)[C@H](O)[C@H]1O` [STREPTOMYCIN], for which the MIC (as a rule, the lowest concentration that inhibits growth of the organism) in the experiment on Staphylococcus aureus turned out to be 5 µg/mL (≈ 8.6 µM); against Bacillus cereus it was 0.1 µg/mL (≈ 0.172 µM); against Micrococcus luteus, 0.1 µg/mL (≈ 0.172 µM).

Regarding `C=C1C(=O)O[C@H]2[C@H]1[C@@H](OC(=O)C(=C)[C@@H](O)CO)C[C@]1(C)[C@@H]2[C@@H](C=O)CC[C@H]1O` [MALACITANOLIDE], the MIC in the experiment on Staphylococcus aureus and against Micrococcus luteus was 5 µg/mL (≈ 12.7 µM) in each case. For the same compound, the outcome with Proteus mirabilis, in the experiment on Pseudomonas aeruginosa and in the experiment on Escherichia coli was inactive.

Consider `C=C[C@]1(C)C[C@H](OC(=O)C(=C)[C@@H](O)CO)[C@H]2C(=C)C(=O)O[C@@H]2[C@H]1C(=C)CO`, for which the results for the MIC against Staphylococcus aureus, in the experiment with Bacillus cereus and against Micrococcus luteus were 5 µg/mL (≈ 13.2 µM), 1.25 µg/mL (≈ 3.3 µM) and 5 µg/mL (≈ 13.2 µM), respectively. The result with Proteus mirabilis, in the experiment on SF-268 [1], with MCF7 [2], in the experiment with Pseudomonas aeruginosa and in the experiment on Escherichia coli was inactive. Moreover, the GI50 (as a rule, the concentration that inhibits growth by half) in the experiment on SF-268 [3] was determined as 29.3 µM.

For the compound `CC[C@]1(O)C[C@@H]2CN(CCc3c([nH]c4ccccc34)[C@@](C(=O)OC)(c3cc4c(cc3OC)N(C)[C@H]3[C@@](O)(C(=O)OC)[C@H](OC(C)=O)[C@]5(CC)C=CCN6CC[C@]43[C@@H]65)C2)C1` [VINBLASTINE], the GI50 with DLD-1 [4], in the experiment on OVCAR-3 [5], in the experiment with MCF7 [6], in the experiment with NCI-H460 [7] and with SF-268 [3] was less than 0.01 µM each time. Further, the TGI (commonly the concentration at which net growth stops) is 2.44 µM with DLD-1 [4], less than 0.01 µM in the experiment with OVCAR-3 [5], 1.6 µM with MCF7 [6] and 0.35 µM in the experiment on NCI-H460 [7]. For the same compound, the CC50 with DLD-1 [4] (setting [11]) amounted to 2.48 µM; with OVCAR-3 [5] (setting [11]), 0.92 µM.

As for `C=C1C(=O)O[C@@H]2/C=C(\CO)CC/C=C(\C)C[C@H](OC(=O)C(=C)[C@H](O)CO)[C@@H]12` [CNICIN], the result with Proteus mirabilis, in the experiment on NCI-H460 [8], in the experiment with DLD-1 [9], with SF-268 [1], in the experiment on MCF7 [2] and in the experiment with OVCAR-3 [10] was inactive. In addition, the outcome in the experiment on Pseudomonas aeruginosa and with Escherichia coli was inactive. Besides, the results for the MIC in the experiment on Bacillus cereus and with Micrococcus luteus were 1.25 µg/mL (≈ 3.3 µM) and 5 µg/mL (≈ 13.2 µM), respectively. In addition, the GI50 was determined as 37.4 µM in the experiment on OVCAR-3 [5] and 37.8 µM in the experiment with MCF7 [6].

For the compound `C=C1C(=O)O[C@@H]2[C@H]1[C@@H](OC(=O)/C(=C/COC(C)=O)CO)C[C@]1(C)[C@@H]2[C@@H](C=O)CC[C@H]1O`, the minimal inhibitory concentration (MIC) in the experiment with Staphylococcus aureus stood at 3.5 µg/mL (≈ 8.02 µM); against Micrococcus luteus, 0.437 µg/mL (≈ 1 µM). Moreover, the outcome with Proteus mirabilis, in the experiment on Pseudomonas aeruginosa and in the experiment with Escherichia coli was inactive.

As for `C=C[C@]1(C)C[C@H](OC(=O)C(=C)[C@@H](O)CO)[C@H]2C(=C)C(=O)O[C@@H]2[C@H]1C(=C)C=O`, the MIC with Staphylococcus aureus was 5 µg/mL (≈ 13.3 µM); against Bacillus cereus, 1.25 µg/mL (≈ 3.32 µM); against Micrococcus luteus, 0.625 µg/mL (≈ 1.66 µM). For the same compound, the result in the experiment on Proteus mirabilis, in the experiment with NCI-H460 [8], in the experiment with DLD-1 [9], in the experiment on SF-268 [1], in the experiment with MCF7 [2] and with OVCAR-3 [10] was inactive. Also, the outcome with Pseudomonas aeruginosa and in the experiment with Escherichia coli was inactive. For the same compound, the GI50 worked out at 4.7 µM in the experiment on OVCAR-3 [5], 10 µM with MCF7 [6], 37 µM with NCI-H460 [7] and 7.7 µM in the experiment with SF-268 [3]. The same compound registered a TGI in the experiment with SF-268 [3] of 38 µM.

Consider `C=C1C(=O)O[C@@H]2/C=C(\CO)CC/C=C(\C)C[C@H](OC(=O)C(=C)[C@@H](O)COC(C)=O)[C@@H]12`, for which the MIC is 5 µg/mL (≈ 11.9 µM) in the experiment on Staphylococcus aureus, 1.25 µg/mL (≈ 2.97 µM) in the experiment on Bacillus cereus and 5 µg/mL (≈ 11.9 µM) against Micrococcus luteus. The outcome with Proteus mirabilis, with Pseudomonas aeruginosa and with Escherichia coli was inactive.

Turning to `C=C1C(=O)O[C@H]2[C@H]1[C@@H](OC(=O)C(=C)[C@@H](O)COC(C)=O)C[C@]1(C)[C@@H]2[C@@H](C=O)CC[C@H]1O`, the MIC against Staphylococcus aureus and in the experiment on Micrococcus luteus was 5 µg/mL (≈ 11.5 µM) in each case. Further, the result in the experiment with Proteus mirabilis, in the experiment with Pseudomonas aeruginosa and in the experiment with Escherichia coli was inactive.

In the experiment with Staphylococcus aureus, `C=C[C@]1(C)C[C@H](OC(=O)C(=C)[C@@H](O)CO)[C@@H](C(=C)C(=O)OC)[C@H](O)C1C(=C)CO` (stereo partly drawn) registered an MIC of 5 µg/mL (≈ 12.2 µM). Further, the result in the experiment on Proteus mirabilis, with NCI-H460 [8], with DLD-1 [9], in the experiment on SF-268 [1], with MCF7 [2] and in the experiment on OVCAR-3 [10] was inactive. Further, the result in the experiment with Pseudomonas aeruginosa and with Escherichia coli was inactive. Also, the GI50 was 31.9 µM in the experiment on OVCAR-3 [5] and 37.6 µM with SF-268 [3].

Turning to `C=C1C(=O)O[C@@H]2/C=C(\CO)CC/C=C(\C)C[C@H](OC(=O)/C(=C/COC(C)=O)CO)[C@@H]12`, the MIC turned out to be 5 µg/mL (≈ 11.9 µM) against Staphylococcus aureus, 1.25 µg/mL (≈ 2.97 µM) against Bacillus cereus and 5 µg/mL (≈ 11.9 µM) in the experiment with Micrococcus luteus. In addition, the result with Proteus mirabilis, with Pseudomonas aeruginosa and in the experiment on Escherichia coli was inactive.

`C=C1C(=O)O[C@H]2[C@H]1[C@@H](OC(=O)C(=C)[C@@H](O)CO)C[C@]1(C)[C@@H]2[C@H](C=O)CC[C@H]1O`: the MIC against Staphylococcus aureus came out at 5 µg/mL (≈ 12.7 µM); with Bacillus cereus, 5 µg/mL (≈ 12.7 µM); with Micrococcus luteus, 0.625 µg/mL (≈ 1.58 µM). Further, the result with Proteus mirabilis, in the experiment with NCI-H460 [8], in the experiment on DLD-1 [9], in the experiment on SF-268 [1], with MCF7 [2] and in the experiment with OVCAR-3 [10] was inactive. For the same compound, the result in the experiment with Pseudomonas aeruginosa and in the experiment on Escherichia coli was inactive. Also, the GI50 came out at 36.4 µM in the experiment on OVCAR-3 [5], 31.7 µM in the experiment on MCF7 [6] and 32.4 µM with NCI-H460 [7].
